Data published in patent US20230151049A1, “Compounds Useful in HIV Therapy” (priority 2020, published 2023).
Read-outs that look alike come from different tables or passages of the source. One block for each compound: values may come before it.

Assay: in vivo
Conditions: for Mean concentration of Example 4B: single IM 20 mg/kg equivalent of EFdA
From the text: General Protocol for Prodrugs Rat PK Studies Conducted at ChemPartner, China
A total of three naïve male Wistar Han rats, 200-250 g, were received from Beijing VR Laboratory Animal Co. LTD. Following an acclimation period, the animals were assigned to the study based on acceptable health as determined by a staff veterinarian and catheter patency. Fasting of the animals before or after dosing was not required.
On Day 1, each animal received a single intramuscular injection of prepared test article at a target dose level of 20 mg/kg equivalent of EFdA and at a dose volume of 2 mL/kg. The injection sites were at gastrocnemius and identified with an indelible marker for daily monitoring during the study. The animals were manually restrained for dosing and were not sedated. The dose suspension was mixed well by inversion before each dose to ensure homogeneity. […] In addition, all animals are monitored twice daily by the veterinary staff for clinical abnormalities.
Blood samples were collected from the study animals as detailed in the sample collection Table 6 below
Each blood sample for PK (200 μL) was collected from tail vein. The blood was transferred to a tube containing NaF/Na2EDTA anticoagulant and inverted several times to mix. Draw 150 μL whole blood from the tube, add 150 uL 100 mM ammonium acetate, pH 4 buffer and mix well. The resulting blood samples were transferred to individual polypropylene tubes and immediately placed on dry ice until storage at nominally −80° C. prior to LC-MS/MS analysis.

[1] = day 28, single IM Example 2B 20 mg/kg
[2] = day 35, single IM Example 2B 20 mg/kg
[3] = day 14, single IM Example 9B 20 mg/kg equivalent of EFdA
[4] = day 21, single IM Example 9B 20 mg/kg equivalent of EFdA
[5] = day 28, single IM Example 9B 20 mg/kg equivalent of EFdA

Compound: C#C[C@]1(COP(=O)(N[C@@H](Cc2ccccc2)C(=O)OCCCCCCCCCCCCCCCC)Oc2ccccc2)O[C@@H](n2cnc3c(N)nc(F)nc32)C[C@@H]1O (single isomer, unassigned) [Example 2B]
Mean concentration of EFdA (day 1, single IM Example 2B 20 mg/kg): BQL (BQL = below quantification limit, 0.2-0.3 ng/mL for both)
Mean concentration of EFdA (day 7, single IM Example 2B 20 mg/kg): BQL (BQL = below quantification limit, 0.2-0.3 ng/mL for both)
Mean concentration of EFdA (day 14, single IM Example 2B 20 mg/kg): BQL (BQL = below quantification limit, 0.2-0.3 ng/mL for both)
Mean concentration of EFdA (day 21, single IM Example 2B 20 mg/kg): BQL (BQL = below quantification limit, 0.2-0.3 ng/mL for both)
Mean concentration of EFdA [1]: BQL (BQL = below quantification limit, 0.2-0.3 ng/mL for both)
Mean concentration of Example 2B [1]: BQL (BQL = below quantification limit, 0.2-0.3 ng/mL for both)
Mean concentration of EFdA [2]: BQL (BQL = below quantification limit, 0.2-0.3 ng/mL for both)
Mean concentration of Example 2B [2]: BQL (BQL = below quantification limit, 0.2-0.3 ng/mL for both)
concentration at 1 day (male, Wistar Han, rat, in vivo, day 1, single IM Example 2B 20 mg/kg, read-out: Mean concentration of Example 2B): 0.514 ng/mL
concentration at 7 day (male, Wistar Han, rat, in vivo, day 7, single IM Example 2B 20 mg/kg, read-out: Mean concentration of Example 2B): 0.708 ng/mL
concentration at 14 day (male, Wistar Han, rat, in vivo, day 14, single IM Example 2B 20 mg/kg, read-out: Mean concentration of Example 2B): 1.11 ng/mL
concentration at 21 day (male, Wistar Han, rat, in vivo, day 21, single IM Example 2B 20 mg/kg, read-out: Mean concentration of Example 2B): 1.33 ng/mL

Compound: C#C[C@]1(COP(=O)(N[C@@H](Cc2ccccc2)C(=O)OCCCCCCCCCC)Oc2ccccc2)O[C@@H](n2cnc3c(N)nc(F)nc32)C[C@@H]1O (single isomer, unassigned) [Example 4B]
Mean concentration of Example 4B (day 0.0208): BQL (BQL = below quantification limit, 0.5 ng/mL for Example 4B and 0.5 to 1 ng/mL for EFdA)
Mean concentration of Example 4B (day 0.0417): BQL (BQL = below quantification limit, 0.5 ng/mL for Example 4B and 0.5 to 1 ng/mL for EFdA)
Mean concentration of Example 4B (day 0.125): BQL (BQL = below quantification limit, 0.5 ng/mL for Example 4B and 0.5 to 1 ng/mL for EFdA)
Mean concentration of Example 4B (day 0.208): BQL (BQL = below quantification limit, 0.5 ng/mL for Example 4B and 0.5 to 1 ng/mL for EFdA)
Mean concentration of Example 4B (day 0.292): BQL (BQL = below quantification limit, 0.5 ng/mL for Example 4B and 0.5 to 1 ng/mL for EFdA)
Mean concentration of Example 4B (day 1): BQL (BQL = below quantification limit, 0.5 ng/mL for Example 4B and 0.5 to 1 ng/mL for EFdA)
Mean concentration of Example 4B (day 2): BQL (BQL = below quantification limit, 0.5 ng/mL for Example 4B and 0.5 to 1 ng/mL for EFdA)
Mean concentration of Example 4B (day 3): BQL (BQL = below quantification limit, 0.5 ng/mL for Example 4B and 0.5 to 1 ng/mL for EFdA)
Mean concentration of Example 4B (day 4): BQL (BQL = below quantification limit, 0.5 ng/mL for Example 4B and 0.5 to 1 ng/mL for EFdA)
Mean concentration of Example 4B (day 5): BQL (BQL = below quantification limit, 0.5 ng/mL for Example 4B and 0.5 to 1 ng/mL for EFdA)
Mean concentration of Example 4B (day 7): BQL (BQL = below quantification limit, 0.5 ng/mL for Example 4B and 0.5 to 1 ng/mL for EFdA)
Mean concentration of EFdA (day 14, single IM Example 4B 20 mg/kg equivalent of EFdA): BQL (BQL = below quantification limit, 0.5 ng/mL for Example 4B and 0.5 to 1 ng/mL for EFdA)
Mean concentration of EFdA (day 17, single IM Example 4B 20 mg/kg equivalent of EFdA): BQL (BQL = below quantification limit, 0.5 ng/mL for Example 4B and 0.5 to 1 ng/mL for EFdA)
Mean concentration of EFdA (day 21, single IM Example 4B 20 mg/kg equivalent of EFdA): BQL (BQL = below quantification limit, 0.5 ng/mL for Example 4B and 0.5 to 1 ng/mL for EFdA)
Mean concentration of EFdA (day 24, single IM Example 4B 20 mg/kg equivalent of EFdA): BQL (BQL = below quantification limit, 0.5 ng/mL for Example 4B and 0.5 to 1 ng/mL for EFdA)
Mean concentration of EFdA (day 28, single IM Example 4B 20 mg/kg equivalent of EFdA): BQL (BQL = below quantification limit, 0.5 ng/mL for Example 4B and 0.5 to 1 ng/mL for EFdA)
Mean concentration of EFdA (day 31, single IM Example 4B 20 mg/kg equivalent of EFdA): BQL (BQL = below quantification limit, 0.5 ng/mL for Example 4B and 0.5 to 1 ng/mL for EFdA)

concentration at 1 day (male, Wistar Han, rat, whole blood, intramuscular, day 1, single IM Example 9B 20 mg/kg equivalent of EFdA, read-out: Mean concentration of Example 9B): 3.01 ng/mL
concentration at 7 day (male, Wistar Han, rat, whole blood, intramuscular, day 7, single IM Example 9B 20 mg/kg equivalent of EFdA, read-out: Mean concentration of Example 9B): 0.663 ng/mL
Compound: C#C[C@]1(COP(=O)(N[C@@H](Cc2ccccc2)C(=O)OCCCCCCCCCC)OCC(=O)OCCCCCCCCCC)O[C@@H](n2cnc3c(N)nc(F)nc32)C[C@@H]1O (single isomer, unassigned) [Example 9B]
Mean concentration of EFdA [3]: BQL (BQL = below quantification limit, 0.2-0.3 ng/mL for Example 9B and 0.2 ng/mL for EFdA)
Mean concentration of Example 9B [3]: BQL (BQL = below quantification limit, 0.2-0.3 ng/mL for Example 9B and 0.2 ng/mL for EFdA)
Mean concentration of EFdA [4]: BQL (BQL = below quantification limit, 0.2-0.3 ng/mL for Example 9B and 0.2 ng/mL for EFdA)
Mean concentration of Example 9B [4]: BQL (BQL = below quantification limit, 0.2-0.3 ng/mL for Example 9B and 0.2 ng/mL for EFdA)
Mean concentration of EFdA [5]: BQL (BQL = below quantification limit, 0.2-0.3 ng/mL for Example 9B and 0.2 ng/mL for EFdA)
Mean concentration of Example 9B [5]: BQL (BQL = below quantification limit, 0.2-0.3 ng/mL for Example 9B and 0.2 ng/mL for EFdA)
